According to patent US9932309B2, “2-oxo-3,4-dihydropyridine-5-carboxylates and their use” (UNIVERSITE DE LILLE 2 DROIT ET SANTE, priority 2014, dated 2018):

Tests used:
[1] = molecular target: T1, mTGR5 (Mus musculus, UniProt Q80SS6); test: TGR5/CRE Luciferase Assay (mTGR5); type: cell-based; conditions: for EC50: HEK 293 cells co-transfected with pCMV AC6-TGR5m and pCRE TA-Luciferase, overnight incubation; for mTGR5 % trans: percentage of the 10 μM LCA value, HEK 293 cells transfected with mTGR5
T1 construct: expressed in transfected cells; host or cells: HEK293 cells, transiently co-transfected with the pCRE TA-Luciferase reporter
T1 sequence (Q80SS6 1-329): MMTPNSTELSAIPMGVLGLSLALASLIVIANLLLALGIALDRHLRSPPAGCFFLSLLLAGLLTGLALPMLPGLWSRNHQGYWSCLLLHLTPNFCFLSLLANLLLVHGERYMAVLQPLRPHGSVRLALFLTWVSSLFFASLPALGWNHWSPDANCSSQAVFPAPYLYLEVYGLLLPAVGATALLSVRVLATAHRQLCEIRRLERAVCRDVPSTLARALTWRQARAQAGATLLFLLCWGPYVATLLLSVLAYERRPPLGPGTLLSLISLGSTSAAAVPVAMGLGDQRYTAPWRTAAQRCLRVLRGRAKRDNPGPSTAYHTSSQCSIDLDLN
Protocol: (§1) TGR5/CRE Luciferase Assay
(§2) In the following Tables TGR5 activation by compounds of the invention and subsequent increase in intracellular cAMP were evaluated using a luciferase reporter gene assay. Human embryonic kidney (HEK) 293 cells were transiently co-transfected with pCMV tag4b-TGR5 h (to follow hTGR5 activation) or pCMV AC6-TGR5m (to follow mTGR5 activation) expression plasmids and the pCRE TA-Luciferase reporter plasmid using the JET PEI reagent (Polyplus transfection). Transfected cells were seeded in 96-well plates and incubated overnight with the test compounds at increasing concentrations tested in duplicate. Lithocolic acid (LCA) at 10 μM was used as a positive reference compound. The cAMP-dependent luciferase expression was followed using the BrightGlo reagent according to the manufacturer (Promega) instructions. Luminescence was read with a Mithras plate reader (Berthold) or a Victor3™ V1420 (Perkin Elmer). […] Concentration-response curves were fitted by a nonlinear regression analysis to a 4 parameter logistic equation

[2] = molecular target: T2, hTGR5 (Homo sapiens, UniProt Q8TDU6); test: TGR5/CRE Luciferase Assay (hTGR5); type: cell-based; conditions: for EC50: HEK 293 cells co-transfected with pCMV tag4b-TGR5h and pCRE TA-Luciferase, overnight incubation; for hTGR5 % trans: percentage of the 10 μM LCA value, HEK 293 cells transfected with hTGR5
T2 construct: expressed in transfected cells; host or cells: HEK293 cells, transiently co-transfected with the pCRE TA-Luciferase reporter
T2 sequence (Q8TDU6 1-330): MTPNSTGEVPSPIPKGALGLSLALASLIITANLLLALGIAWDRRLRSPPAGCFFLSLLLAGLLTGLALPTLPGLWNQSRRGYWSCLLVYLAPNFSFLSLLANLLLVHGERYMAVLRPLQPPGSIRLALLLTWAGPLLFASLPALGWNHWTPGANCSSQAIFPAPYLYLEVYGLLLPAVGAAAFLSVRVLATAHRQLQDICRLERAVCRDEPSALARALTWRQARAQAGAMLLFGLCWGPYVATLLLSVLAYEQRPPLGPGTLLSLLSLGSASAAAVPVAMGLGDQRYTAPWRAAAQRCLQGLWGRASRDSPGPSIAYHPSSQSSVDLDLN
Protocol: as §1, §2

Compound	EC50 [1] [µM]	mTGR5 % trans [1] [%]	EC50 [2] [µM]	hTGR5 % trans [2] [%]
CC1=C(C(=O)OCc2ccccc2OCCS(=O)(=O)O)[C@@H](c2ccc(Cl)nc2)CC(=O)N1C[C@@H]1CCCO1.N (racemic) [Example 158, Ammonium, 2-[2-[[(4S)-4-(6-chloro-3-pyridyl)-6-methyl-2-oxo-1-[[(2R)-tetrahydrofuran-2-yl]methyl]-3,4-dihydropyridine-5-carbonyl]oxymethyl]phenoxy]ethanesulfonate and ammonium,2-[2-[[(4R)-4-(6-chloro-3-pyridyl)-6-methyl-2-oxo-1-[[(2S)-tetrahydrofuran-2-yl]methyl]-3,4-dihydropyridine-5-carbonyl]oxymethyl]phenoxy]ethanesulfonate]	1.3	97	3.6	74
CC1=C(C(=O)OCc2ccccc2)C(c2ccc(C)cc2)CC(=O)N1 (stereo not drawn) [Compound 3, 2-Methyl-6-oxo-4-p-tolyl-1,4,5,6-tetrahydro-pyridine-3-carboxylic acid benzyl ester]	10.4	45	7.4	65
COc1ccccc1C1CC(=O)NC(C)=C1C(=O)OCc1ccccc1 (stereo not drawn) [Compound 4, 4-(2-Methoxy-phenyl)-2-methyl-6-oxo-1,4,5,6-tetrahydro-pyridine-3-carboxylic acid benzyl ester]	8.5	18	10	17
CC1=C(C(=O)OCc2ccccc2)C(c2ccc(C(F)(F)F)cc2)CC(=O)N1 (stereo not drawn) [Compound 9, 2-Methyl-6-oxo-4-(4-trifluoromethyl-phenyl)-1,4,5,6-tetrahydro-pyridine-3-carboxylic acid benzyl ester]	1.4	37	1.5	48
CC1=C(C(=O)OCc2ccccc2)C(c2ccc(F)cc2)CC(=O)N1 (stereo not drawn) [Compound 13, 4-(4-Fluoro-phenyl)-2-methyl-6-oxo-1,4,5,6-tetrahydro-pyridine-3-carboxylic acid benzyl ester]	4.2	37	2.6	40
CC1=C(C(=O)OCc2ccccc2)C(c2ccccc2)CC(=O)N1 (stereo not drawn) [Compound 14, 2-Methyl-6-oxo-4-phenyl-1,4,5,6-tetrahydro-pyridine-3-carboxylic acid benzyl ester]	10.3	18	7.6	30
CC1=C(C(=O)OCc2ccccc2)C(c2ccc(Cl)cc2)CC(=O)N1C (stereo not drawn) [Compound 17, 4-(4-Chloro-phenyl)-1,2-dimethyl-6-oxo-1,4,5,6-tetrahydro-pyridine-3-carboxylic acid benzyl ester]	1.4		0.6	
CN1C=C(C(=O)NCc2ccccc2)C(c2ccc(Cl)cc2)CC1=O (stereo not drawn) [Compound 26, N-benzyl-4-(4-chlorophenyl)-1-methyl-2-oxo-3,4-dihydropyridine-5-carboxamide]	1.8	20	4.6	10
COCCN1C=C(C(=O)OCc2ccccc2)C(c2ccc(Cl)cc2)CC1=O (stereo not drawn) [Compound 32, Benzyl 4-(4-chlorophenyl)-1-(2-methoxyethyl)-2-oxo-3,4-dihydropyridine-5-carboxylate]	1.1	55	0.6	77
COCCN1C=C(C(=O)NCc2ccccc2)C(c2ccc(Cl)cc2)CC1=O (stereo not drawn) [Compound 33, N-benzyl-4-(4-chlorophenyl)-1-(2-methoxyethyl)-2-oxo-3,4-dihydropyridine-5-carboxamide]	11	14	6.4	42
C=CCN1C(=O)CC(c2ccc(Cl)cc2)C(C(=O)OCc2ccccc2)=C1C (stereo not drawn) [Compound 38, Benzyl 1-allyl-4-(4-chlorophenyl)-6-methyl-2-oxo-3,4-dihydropyridine-5-carboxylate]	1.5	54	1.1	75
C=C(C)CN1C(=O)CC(c2ccc(Cl)cc2)C(C(=O)OCc2ccccc2)=C1C (stereo not drawn) [Compound 39, Benzyl 4-(4-chlorophenyl)-6-methyl-1-(2-methylallyl)-2-oxo-3,4-dihydropyridine-5-carboxylate]	1.4	73	1.3	82
C#CCN1C(=O)CC(c2ccc(Cl)cc2)C(C(=O)OCc2ccccc2)=C1C (stereo not drawn) [Compound 40, Benzyl 4-(4-chlorophenyl)-6-methyl-2-oxo-1-prop-2-ynyl-3,4-dihydropyridine-5-carboxylate]	0.9	76	0.9	81
CC1=C(C(=O)OCc2ccccc2)C(c2ccc(Cl)cc2)CC(=O)N1Cc1ccccc1 (stereo not drawn) [Compound 41, Benzyl 1-benzyl-4-(4-chlorophenyl)-6-methyl-2-oxo-3,4-dihydropyridine-5-carboxylate]	1.2	55	1.3	55
CC1=C(C(=O)OCc2ccccc2)C(c2ccc(Cl)cc2)CC(=O)N1CC1CCC1 (stereo not drawn) [Compound 44, Benzyl 4-(4-chlorophenyl)-1-(cyclobutylmethyl)-6-methyl-2-oxo-3,4-dihydropyridine-5-carboxylate]	0.4	77	0.3	59

The remaining molecules from weak to strong by EC50 [2], led by results:

EC50 [1] [µM]	mTGR5 % trans [1] [%]	EC50 [2] [µM]	hTGR5 % trans [2] [%]	Compound
1.1	16	39	37	CN1C=C(C(=O)N(C)Cc2ccccc2)C(c2ccc(Cl)cc2)CC1=O (stereo not drawn) [Compound 33a, N-benzyl-4-(4-chlorophenyl)-N,1-dimethyl-2-oxo-3,4-dihydropyridine-5-carboxamide]
11.1	34	10.6	31	COc1cccc(C2CC(=O)NC(C)=C2C(=O)OCc2ccccc2)c1 (stereo not drawn) [Compound 5, 4-(3-Methoxy-phenyl)-2-methyl-6-oxo-1,4,5,6-tetrahydro-pyridine-3-carboxylic acid benzyl ester]
	14	5	22	CC1=C(C(=O)OCc2ccccc2)C(c2ccccc2C(F)(F)F)CC(=O)N1 (stereo not drawn) [Compound 7, 2-Methyl-6-oxo-4-(2-trifluoromethyl-phenyl)-1,4,5,6-tetrahydro-pyridine-3-carboxylic acid benzyl ester]
4.3	44	3.51	36	COCCC1=C(C(=O)OCc2ccccc2)C(c2ccc(Cl)cc2)CC(=O)N1 (stereo not drawn) [Compound 22, benzyl 4-(4-chlorophenyl)-6-(2-methoxyethyl)-2-oxo-3,4-dihydro-1H-pyridine-5-carboxylate]
3.9	12	1.5	16	O=C(NCc1ccccc1)C1=CN(CC2CC2)C(=O)CC1c1ccc(Cl)cc1 (stereo not drawn) [Compound 30, N-benzyl-4-(4-chlorophenyl)-1-(cyclopropylmethyl)-2-oxo-3,4-dihydropyridine-5-carboxamide]
1.5	37	1.26	59	O=C(OCc1ccccc1)C1=CN(CC2CC2)C(=O)CC1c1ccc(Cl)cc1 (stereo not drawn) [Compound 29, Benzyl 4-(4-chlorophenyl)-1-(cyclopropylmethyl)-2-oxo-3,4-dihydropyridine-5-carboxylate]
0.5	36	1.22	43	O=C1CC(c2ccc(Cl)cc2)C(C(=O)NCc2ccccc2)=CN1 (stereo not drawn) [Compound 25, N-benzyl-4-(4-chlorophenyl)-2-oxo-3,4-dihydro-1H-pyridine-5-carboxamide]
0.6		0.3		COCCN1C(=O)CC(c2ccc(Cl)cc2)C(C(=O)OCc2ccccc2)=C1C (stereo not drawn) [Compound 37, Benzyl 4-(4-chlorophenyl)-1-(2-methoxyethyl)-6-methyl-2-oxo-3,4-dihydropyridine-5-carboxylate]
